In one experiment the target is HRAS Wild Type (Homo sapiens (Human), UniProt P01112). Briefly: SPR binding affinity and kinetics, GTPγS-loaded HRAS Wild Type. The following applies: GTPγS loaded protein, geomean. The text has this: (§1) No additional regeneration was used.
(§2) Compound dissociation was monitored for at least 3600 seconds. […] No additional regeneration was used.
(§3) The adequateness of the fit was judged by c2 values and the randomness of residue distribution.

The next experiment has as its target KRAS Wild Type (Homo sapiens (Human), UniProt P01116). Briefly: SPR binding affinity and kinetics, GTPγS-loaded KRAS Wild Type. Conditions: GTPγS loaded protein, geomean. A digest of the protocol:
(§4)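 No additional regeneration is used in these SPR runs, and compound off-rate monitoring lasts at least 3600 seconds.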

For a further experiment, the target named is NRAS Wild Type (Homo sapiens (Human), UniProt P01111). In words: SPR binding affinity and kinetics, GTPγS-loaded NRAS Wild Type. The following applies: GTPγS loaded protein, geomean.
Source text: as §1, §2, §3

Another experiment deals with KRAS G12D (Homo sapiens (Human), UniProt P01116, G12D). Briefly: SPR binding affinity and kinetics, GTPγS-loaded KRAS G12D. Conditions: GTPγS loaded protein, geomean. The method in brief:
as §4

The next experiment has as its target KRAS G12V (Homo sapiens (Human), UniProt P01116, G12V). Briefly: SPR binding affinity and kinetics, GTPγS-loaded KRAS G12V. Conditions: GTPγS loaded protein, geomean. The method in brief:
as §4

A further experiment has as its target KRAS G12C (Homo sapiens (Human), UniProt P01116, G12C). Briefly: SPR binding affinity and kinetics, GTPγS-loaded KRAS G12C. The following applies: GTPγS loaded protein, geomean. The method in brief:
as §4

The subject of experiment [1] is H358 (non-small cell lung cancer cell line). In words: KRAS Cell Titer Glo (CTG) cell proliferation assay, H358. The class given is cell-based. The following applies: Homo sapiens, NCI-H358, 168 h; H358 cells, 7-day CTG, geomean IC50. A digest of the protocol: (§5)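 Compounds pre-dispensed in 0.1% DMSO before seeding H358 (300 cells/well), SW620 (750) or PANC08.13 (600); 7-day exposure at 37 °C, 5% CO2. Viability by CellTiter-Glo luminescence after 15 min at room temperature. Percent effect normalised to DMSO (0%) and 1 uM trametinib (100%); geomean IC50.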

Experiment [2] concerns SW620 (colorectal cancer cell line). Briefly: KRAS Cell Titer Glo (CTG) cell proliferation assay, SW620. Conditions: Homo sapiens, SW-620, 168 h; SW620 cells, 7-day CTG, geomean IC50. The class given is cell-based. A digest of the protocol: as §5
Experiment [3] has as its system PANC08.13 (pancreatic cancer cell line). Briefly: KRAS Cell Titer Glo (CTG) cell proliferation assay, PANC08.13. The class given is cell-based. The following applies: Homo sapiens, PANC-08-13, 168 h; PANC08.13 cells, 7-day CTG, geomean IC50. A digest of the protocol:
as §5

For the compound `COC/C=C1\CN2CCC[C@@]2(COc2nc3c4c(nc(-c5c6c(cc7[nH]ncc57)CCC[C@H]6OC)c(F)c4n2)OC[C@@H]2COCCCN32)C1` (single isomer, unassigned) [Example 58, (8aS)-4-fluoro-2-{[(2Z,7aS)-2-(2-methoxyethylidene)tetrahydro-1H-pyrrolizin-7a(5H)-yl]methoxy}-5-[(5R*)-5-methoxy-5,6,7,8-tetrahydro-1H-benzo[f]indazol-4-yl]-8a,9,12,13-tetrahydro-8H,11H-7,10-dioxa-1,3,6,13a-tetraazanaphtho[1,8-ab]heptalene], the equilibrium dissociation constant (Kd) on HRAS Wild Type was greater than 10000 nM; at KRAS Wild Type it was 61 nM; on NRAS Wild Type, greater than 10000 nM; at KRAS G12D, 74 nM; at KRAS G12V it was 81 nM; on KRAS G12C it was 42 nM.
Take `F/C=C1\CN2CCC[C@@]2(COc2nc3c4c(nc(-c5c(C6CC6)c(Cl)cc6[nH]ncc56)c(F)c4n2)OC[C@@H]2COCCCN32)C1` [Example 16, (8aS)-5-(6-chloro-5-cyclopropyl-1H-indazol-4-yl)-4-fluoro-2-{[(2Z,7aS)-2-(fluoromethylidene)tetrahydro-1H-pyrrolizin-7a(5H)-yl]methoxy}-8a,9,12,13-tetrahydro-8H,11H-7,10-dioxa-1,3,6,13a-tetraazanaphtho[1,8-ab]heptalene]: the IC50 in experiment [1] came out at 22 nM; in experiment [2], 23 nM; in experiment [3], 2 nM. Also, the Kd at HRAS Wild Type was greater than 10000 nM; at KRAS Wild Type, 4 nM; on NRAS Wild Type, greater than 10000 nM; on KRAS G12D it was 3 nM; at KRAS G12V, 4 nM; on KRAS G12C, 4 nM.
Consider `Fc1c(-c2c(C3CC3)c(Cl)cc3[nH]ncc23)nc2c3c(nc(OC[C@]45CCCN4CC4(CC4)C5)nc13)N1CCCOC[C@H]1CO2` [Example 19, (8aS)-2-{[(7′aR)-dihydro-1′H,3′H-spiro[cyclopropane-1,2′-pyrrolizin]-7′a(5′H)-yl]methoxy}-5-(6-chloro-5-cyclopropyl-1H-indazol-4-yl)-4-fluoro-8a,9,12,13-tetrahydro-8H,11H-7,10-dioxa-1,3,6,13a-tetraazanaphtho[1,8-ab]heptalene], for which the half-inhibitory concentration (IC50) was found to be 62 nM in experiment [1], 103 nM in [2] and 3 nM in experiment [3]. Further, the Kd was greater than 10000 nM at HRAS Wild Type; 8 nM on KRAS Wild Type; greater than 10000 nM on NRAS Wild Type; 6 nM at KRAS G12D; 9 nM on KRAS G12V; 5 nM at KRAS G12C.
Regarding `C=C1CN2CCC[C@@]2(COc2nc3c4c(nc(-c5c(C6CC6)ccc6[nH]ncc56)c(F)c4n2)OC[C@@H]2COCCCN32)C1` [Example 20, (8aS)-5-(5-cyclopropyl-1H-indazol-4-yl)-4-fluoro-2-{[(7aS)-2-methylidenetetrahydro-1H-pyrrolizin-7a(5H)-yl]methoxy}-8a,9,12,13-tetrahydro-8H,11H-7,10-dioxa-1,3,6,13a-tetraazanaphtho[1,8-ab]heptalene], the IC50 is 275 nM in [1], 400 nM in experiment [2] and 17 nM in [3]. The dissociation constant (Kd) at HRAS Wild Type is greater than 10000 nM; at KRAS Wild Type, 91 nM; at NRAS Wild Type, greater than 10000 nM; at KRAS G12D, 51 nM; at KRAS G12V, 50 nM; on KRAS G12C it was 31 nM.
`C=C1CN2CCC[C@@]2(COc2nc3c4c(nc(-c5c(C6CC6)c(Cl)cc6[nH]ncc56)c(F)c4n2)OC[C@@H]2CCCCN32)C1` [Example 21, (8aS)-5-(6-chloro-5-cyclopropyl-1H-indazol-4-yl)-4-fluoro-2-{[(7aS)-2-methylidenetetrahydro-1H-pyrrolizin-7a(5H)-yl]methoxy}-8,8a,9,10,11,12-hexahydro-7-oxa-1,3,6,12a-tetraazabenzo[4,5]cyclohepta[1,2,3-de]naphthalene]: the concentration for half-maximal inhibition (IC50) in [1] was found to be 381 nM; in [2], 268 nM; in [3], 8 nM. Also, the dissociation constant Kd on HRAS Wild Type is greater than 10000 nM; at KRAS Wild Type, 31 nM; on NRAS Wild Type it was greater than 10000 nM; at KRAS G12D it was 21 nM; at KRAS G12V it was 15 nM; at KRAS G12C, 14 nM.
For `C=C1CN2CCC[C@@]2(COc2nc3c4c(nc(-c5c(C6CC6)c(Cl)cc6[nH]ncc56)c(F)c4n2)OC[C@@H]2COCCN32)C1` [Example 22, (8aS)-5-(6-chloro-5-cyclopropyl-1H-indazol-4-yl)-4-fluoro-2-{[(7aS)-2-methylidenetetrahydro-1H-pyrrolizin-7a(5H)-yl]methoxy}-8a,9,11,12-tetrahydro-8H-7,10-dioxa-1,3,6,12a-tetraazabenzo[4,5]cyclohepta[1,2,3-de]naphthalene], the figures for the half-inhibitory concentration (IC50) in [1], in experiment [2] and in experiment [3] were 636 nM, 839 nM and 98 nM, respectively. For the same compound, the figures for the dissociation constant (Kd) on HRAS Wild Type, at NRAS Wild Type and on KRAS G12D were greater than 10000 nM, greater than 10000 nM and 250 nM, respectively.
As to `C=C1CN2CCC[C@@]2(COc2nc3c4c(nc(-c5c(C6CC6)c(Cl)cc6[nH]ncc56)c(F)c4n2)OC[C@@H]2CC[C@H](O)CN32)C1` [Example 23, (8aS,11S)-5-(6-chloro-5-cyclopropyl-1H-indazol-4-yl)-4-fluoro-2-{[(7aS)-2-methylidenetetrahydro-1H-pyrrolizin-7a(5H)-yl]methoxy}-8,8a,9,10,11,12-hexahydro-7-oxa-1,3,6,12a-tetraazabenzo[4,5]cyclohepta[1,2,3-de]naphthalen-11-ol], the figures for the IC50 in [1], in experiment [2] and in [3] were 102 nM, 156 nM and 3 nM, respectively. Besides, the equilibrium dissociation constant (Kd) at HRAS Wild Type was greater than 10000 nM; on KRAS Wild Type, 3 nM; on NRAS Wild Type, greater than 10000 nM; on KRAS G12D, 3 nM; at KRAS G12V, 2 nM; on KRAS G12C it was 3 nM.
As to `C=C1CN2CCC[C@@]2(COc2nc3c4c(nc(-c5c(C(C)C)c(Cl)cc6[nH]ncc56)c(F)c4n2)OC[C@@H]2COCCCN32)C1` [Example 24, (8aS)-5-[6-chloro-5-(propan-2-yl)-1H-indazol-4-yl]-4-fluoro-2-{[(7aS)-2-methylidenetetrahydro-1H-pyrrolizin-7a(5H)-yl]methoxy}-8a,9,12,13-tetrahydro-8H,11H-7,10-dioxa-1,3,6,13a-tetraazanaphtho[1,8-ab]heptalene], the IC50 in experiment [1] came out at 45 nM; in [2], 18 nM; in [3] it was 6 nM. Moreover, the Kd was greater than 10000 nM on HRAS Wild Type; 7 nM at KRAS Wild Type; greater than 10000 nM at NRAS Wild Type; 5 nM at KRAS G12D; 5 nM at KRAS G12V; 4 nM at KRAS G12C.
Turning to `C[C@@H]1CCCc2cc3[nH]ncc3c(-c3nc4c5c(nc(OC[C@@]67CCCN6C/C(=C\F)C7)nc5c3F)N3CCCOC[C@H]3CO4)c21` [Example 54, (8aS)-4-fluoro-2-{[(2Z,7aS)-2-(fluoromethylidene)tetrahydro-1H-pyrrolizin-7a(5H)-yl]methoxy}-5-[(5R)-5-methyl-5,6,7,8-tetrahydro-1H-benzo[f]indazol-4-yl]-8a,9,12,13-tetrahydro-8H,11H-7,10-dioxa-1,3,6,13a-tetraazanaphtho[1,8-ab]heptalene], the Kd on HRAS Wild Type was greater than 10000 nM; on KRAS Wild Type it was 1 nM; at NRAS Wild Type, greater than 10000 nM; on KRAS G12D, 1 nM; at KRAS G12V it was 1 nM; on KRAS G12C, less than 1 nM.
On to `C=C1CN2CCC[C@@]2(COc2nc3c4c(nc(-c5c6c(cc7[nH]nc(Cl)c57)CCC[C@H]6C)c(F)c4n2)OC[C@@H]2COCCCN32)C1` [Example 62, (8aS)-5-[(5R)-3-chloro-5-methyl-5,6,7,8-tetrahydro-1H-benzo[f]indazol-4-yl]-4-fluoro-2-{[(7aS)-2-methylidenetetrahydro-1H-pyrrolizin-7a(5H)-yl]methoxy}-8a,9,12,13-tetrahydro-8H,11H-7,10-dioxa-1,3,6,13a-tetraazanaphtho[1,8-ab]heptalene], for which the dissociation constant Kd on HRAS Wild Type was greater than 10000 nM; on KRAS Wild Type, less than 1 nM; at NRAS Wild Type, greater than 10000 nM; at KRAS G12D it was less than 1 nM; on KRAS G12V, less than 1 nM; at KRAS G12C it was less than 1 nM.
In the case of “(1Z)-1-[(7aS)-7a-({[(8aS)-5-(6-chloro-5-cyclopropyl-1H-indazol-4-yl)-4-fluoro-8a,9,12,13-tetrahydro-8H,11H-7,10-dioxa-1,3,6,13a-tetraazanaphtho[1,8-ab]heptalen-2-yl]oxy}methyl)tetrahydro-1H-pyrrolizin-2(3H)-ylidene]propan-2-ol [Example 60]”, the Kd on HRAS Wild Type was greater than 10000 nM; at KRAS Wild Type it was 25 nM; at NRAS Wild Type it was greater than 10000 nM; at KRAS G12D, 11 nM; on KRAS G12V, 18 nM; on KRAS G12C, 26 nM.

The record behind these values is patent US20250034173A1, “PYRIDO[4,3-D]PYRIMIDINE COMPOUNDS” (PFIZER INC., priority 2023, published 2025).
